Earlier results as cited in patent US20160303177A1, “NUTRITIONAL SUPPLEMENT” (priority 2015, published 2016).

Assays:
[1] = 600 mg prior to exercise
[2] = 400 mg at three times per day
[3] = training in set of 8-15 repetitions
[4] = washout period
[5] = 300 mg per day
[6] = 5 grams at three times a day along with other medications
[7] = 17.25 grams per day, cyclists
[8] = given before animals were cardiac stressed
[9] = 300 mgs of EGCG
[10] = two grams of L-Carnitine with 80 mg of carbohydrates
[11] = 6 grams
[12] = diseased hearts, 3 grams a day
[13] = 1500 mg per day for 6 weeks, mild to moderate erectile dysfunction
[14] = 8 grams of L-Citrulline with 10 grams of carbohydrate
[15] = healthy individuals
[16] = 500 milligrams of nitrate, runners
[17] = 11.2 mmol/kg of nitrate

In the case of `C[N+](C)(C)CCOP(=O)([O-])OC[C@H](O)CO` [Alpha GPC, Alpha Glycerylphosphorylcholine], the “peak increase in peak force production during resistance exercise” value [1] is given as 14% and the “cognition in mild to moderate Alzheimer's dementia” value [2] is given as “cognitive improvement”.

In the case of `NCCC(=O)O` [Beta-Alanine], the “additional reps in the gym” value [3] is given as “one to two additional reps” and the “time after supplementation still in the muscles at higher levels” value [4] is given as 8 weeks.

For `COC1=C(OC)C(=O)C(C/C=C(\C)CC/C=C(\C)CC/C=C(\C)CC/C=C(\C)CC/C=C(\C)CC/C=C(\C)CC/C=C(\C)CC/C=C(\C)CC/C=C(\C)CCC=C(C)C)=C(C)C1=O` [CoQ 10, Coenzyme Q10], the half-life (in vivo) is given as 5.8 to 8.10 h, the “increase in CoQ10 concentrations” value (supplementation with 90-120 mg) is given as 50-150% and the fatigue during exertion [5] is given as “reduce fatigue during the late portions of exertion”.

For `O=C[C@H](O)[C@H](O)[C@H](O)CO` [D-Ribose], the fibromyalgia symptoms [6] is given as “marked decrease in symptoms”, the “rates of ATP production” value [7] is given as “increased the rates of ATP production back to pre-exercise levels” and the “held out longer before ischemia compared to placebo” value [8] is given as 25%.

In the case of `O=C(O[C@@H]1Cc2c(O)cc(O)cc2O[C@@H]1c1cc(O)c(O)c(O)c1)c1cc(O)c(O)c(O)c1` [EGCG, epigallocatechin gallate], the “source of energy when taken with a meal” value [9] is listed as “a greater proportion of energy comes from dietary fat rather than carbohydrate”.

In the case of `C[N+](C)(C)C[C@H](O)CC(=O)[O-]` [L-Carnitine], the fat burning [10] is listed as “increased fat burning” and the “increase in muscle carnitine content” value [10] is listed as 21%.

For `NC(=O)NCCC[C@H](N)C(=O)O` [L-Citrulline], the ATP production [11] is given as “increased ATP production”, the ammonia production [11] is given as “reduced ammonia production” and the muscle protein synthesis [11] is given as “increased muscle protein synthesis”. The “reduction of creatine depletion” value [11] was 28%, the blood pressure [12] was “decrease in blood pressure” and the exercise abilities [12] was “increase in exercise abilities”. For the same compound, the “right ventricular ejection fraction” value [12] was “increase in right ventricular ejection fraction”, the “men with increase in erection hardness” value [13] was 50% and the delay in fatigue [14] was “statistically significant delay in fatigue”.

In the case of `O=[N+]([O-])O` [nitrate], the “reduced VO2 (oxygen consumption)” value ([15]; 0.1 mmol/kg of nitrate) is listed as 5.4%, the “increase in time to fatigue” value ([15]; 6.2 mmol/kg of nitrate) is listed as 15% and the “increase in energy efficiency” value [15] is listed as 7.1%. The “improvement of 5K time” value [16] was 41 s and the “reduction of oxygen muscle extraction” value [17] was 19%.
